Earlier results in US20220142944A1, “TREATMENT OF SKIN DISORDERS WITH TOPICAL TAPINAROF-EGFR INHIBITOR COMPOSITIONS” (Sol-Gel Technologies Ltd., priority 2019, published 2022).

Tests used:
[1] = tested on: atopic dermatitis and plaque psoriasis
[2] = not given; remark: listed apart in the source
[3] = 1% tapinarof arm compared with 0.5% arm or vehicle

| solubility | SMILES | efficacy [1, 3] | onset of action [1, 3] | most frequent adverse events ([1]; topical tapinarof) | rate of treatment-emergent adverse events ([2]; 93 of 165 with tapinarof, vehicle 34 of 82 [41%]) [%] | intensity of treatment-emergent adverse events ([2]; in vivo) |
| --- | --- | --- | --- | --- | --- | --- |
| poorly soluble | C#Cc1cccc(Nc2ncnc3cc(OCCOC)c(OCCOC)cc23)c1 [erlotinib] | – | – | – | – | – |
| – | CC(C)c1c(O)cc(/C=C/c2ccccc2)cc1O [tapinarof, 3,5-dihydroxy-4-isopropyl-trans-stilbene] | higher efficacy | quicker onset of action | folliculitis and contact dermatitis | 56 | mild to moderate |
